Test results taken from publication PMC7829778, “Optimization of 1,4-Naphthoquinone Hit Compound: A Computational, Phenotypic, and In Vivo Screening against Trypanosoma cruzi” (Molecules, 2021).
Like-named read-outs stand apart in the source and are kept apart here.

Key:
[1] = tested on: intracellular amastigotes of T. cruzi (Dm28c-Luc clone); experiment: Luminescent screening against intracellular amastigotes in infected Vero cells; assay type: cell-based, Trypanosoma cruzi; conditions: infected Vero cells treated for 72 h, mean ± SD of three experiments
Procedure: (§1) T. cruzi Dm28c-Luc clone, genetically modified to express firefly luciferase, and Y strain were used in the drug screening assay. Vero cells were infected with T. cruzi, Dm28c-Luc or Y strain, in a 10:1 parasites/host cell ratio and maintained at 37 °C in humidified atmosphere of 5% CO2. Trypomastigotes were harvested from the infected culture supernatant on the 4th day post-infection (dpi) followed by quantification of the number of parasites/mL in Neubauer chamber.
The effect of the compounds against intracellular amastigotes was screened in 72 h T. cruzi-infected Vero cells. Briefly, Vero cells seeded (1.5 × 10^4 cells/well) on 96-well white plate infected with trypomastigotes (Dm28c-Luc) at a 10:1 multiplicity of parasites/cell. After 24 h of infection, the cultures were washed with PBS and then, treated for 72 h at 37 °C with naphthoquinone derivatives and Bz (0.41–100 µM). After treatment, luciferin (300 µg/mL) was added to the culture and the viability of the parasites was assessed by reading the luminescent signal using the FlexStation 3 reader. Controls were also performed in no-toxic concentrations of DMSO (≤1%).

[2] = tested on: T. cruzi trypomastigotes Y strain; experiment: Trypanocidal activity against trypomastigotes, Y strain (CellTiter Glo); assay type: cell-based; conditions: Trypanosoma cruzi, 24 h
Procedure: as §1
(§2) Screening of the compounds was performed against trypomastigotes and intracellular amastigote forms. Trypomastigotes (1 × 10^6 parasites/well), Dm28c-Luc clone and Y strain, were incubated for 24 h at 37 °C with the 1,4 naphthoquinone derivatives and Bz (0.41–100 μM) and their viability determined by the activity of the luciferase enzyme, after addition of luciferin substrate (300 μg/mL), or CellTiter Glo. The luminescent signal was detected on the FlexStation 3 reader.

[3] = Cytotoxicity in vitro assay (CellTiter Glo, ATP level); assay type: cell-based; conditions: African green monkey, Vero cells
Procedure: The cultures were maintained at 37 °C in humidified atmosphere of 5% CO2.
To evaluate the toxic effects of the 1,4-naphthoquinone derivatives on mammalian cells, Vero cells were seeded at a density of 1.5 × 10^4 cells/well in 96-well white culture plates. Twenty-four hours later, the cell cultures were incubated for 72 h at 37 °C with 1,4-naphthoquinone derivatives (series 1(a–i) and 2(a–j)) and Bz (500–1.9 µM) diluted in RPMI medium supplemented with 10% FBS. After incubation, the cell viability, measured by ATP level, was assessed by adding 20 µL/well of the CellTiter Glo (Promega Corporation, Madison, WI, EUA) solution. The luminescent signal was read on the FlexStation 3 reader (Molecular Devices, Sunnyvale, CA, USA). […] All treatments and controls were performed at low concentration (≤1%) of dimethyl sulfoxide (DMSO). At least three independent assays were performed in duplicate.

[4] = tested on: T. cruzi trypomastigotes Dm28c-Luc; experiment: Trypanocidal activity against trypomastigotes, Dm28c-Luc clone (luciferase); assay type: cell-based, Trypanosoma cruzi; conditions: 24 h, mean ± SD of three experiments; for IC50: read-out: Trypanocidal Effect Trypomastigotes Dm28c-Luc IC50; for IC90: read-out: Trypanocidal Effect Trypomastigotes Dm28c-Luc IC90
Procedure: as §1, §2

T. cruzi = tested on: T. cruzi; parameters: method as in PMID 18788881; conditions: C3H/HeN female infected mice, cited from earlier work
[5] = Mouse acute toxicity (NOAEL); assay type: in vivo
Procedure: Treated animals were separated into two groups: (1) 5 consecutive doses of 50 mg/kg and (2) 100 mg/kg every 1h, totaling a cumulative dose of 250 mg/kg and 500 mg/kg, respectively. Untreated and vehicle treated animals (PBS with 3% Tween-80) were used as control groups. Mice were inspected for toxic and sub-toxic symptoms according to Organization for Economic Co-operation and Development (OECD) guidelines [46].

T. cruzi Y strain = experiment: Murine model of T. cruzi acute infection; assay type: in vivo, Trypanosoma cruzi
Procedure: Male Swiss Webster mice (18 g) were obtained from the Institute of Science and Technology in Bio-models of the Oswaldo Cruz Foundation, Rio de Janeiro, Brazil. […] The animals received water and an ad libitum feeding regimen. Mice were intraperitoneally (i.p.) infected with bloodstream trypomastigotes of T. cruzi Y strain (10^4 parasites/animal) and parasitemia was daily evaluated from the 4th dpi. […] Daily treatment (0.1 mL i.p. dose) started at 5 days post-infection (dpi) with positive parasitemia and followed up to 10 dpi.
Parasitemia was estimated by Pizzy-Brener method [47]. Briefly, animals parasitemia were determined by microscopic quantification of fresh blood (5 µL) collected from animals’ caudal vein. Mortality was daily evaluated up to 26 days and expressed in survival rates.

[6] = trypomastigotes, mean ± SD of three experiments, read-out: Trypanocidal Effect Trypomastigotes Y Strain IC50
[7] = trypomastigotes, mean ± SD of three experiments, read-out: Trypanocidal Effect Trypomastigotes Y Strain IC90
[8] = Table 1, mean ± SD, read-out: Vero Cells Toxicity CC50
[9] = read-out: Trypanocidal Effect Trypomastigotes Y Strain IC90, trypomastigotes, 24 h, mean ± SD of three experiments
[10] = read-out: Trypanocidal Effect Trypomastigotes Y Strain IC50, trypomastigotes, 24 h, mean ± SD of three experiments

Structure (SMILES)	IC50 ([1]; Trypanosoma cruzi, Vero, 72 h)	IC90 ([1]; Trypanosoma cruzi)	melting point	IC50 [2, 6]	IC90 [2, 7]	CC50 at 72 h [3, 8]	CC50 at 72 h ([3]; Table 2, read-out: CC50 Vero)	IC50 ([4]; Trypanosoma cruzi)	IC90 ([4]; Trypanosoma cruzi)	IC50 [1]	further results
O=C1C(O)=C(C(Sc2ccc(Cl)cc2Cl)c2ccccc2)C(=O)c2ccccc21 (centres unmarked) [Compound 1d, 2-(((2,4-dichlorophenyl)thio)(phenyl)methyl)-3-hydroxynaphthalene-1,4-dione]	13.5 ± 2.1 µM	31.1 ± 3.1 µM	144 to 145 °C	2.8 ± 0.6 µM	5.8 ± 1.1 µM	82.1 ± 5.1 µM	82.1 ± 5.1 µM	9.3 ± 1.1 µM	23.3 ± 2.1 µM	–	–
COc1ccc(C(Sc2ccc3ccccc3c2)C2=C(O)C(=O)c3ccccc3C2=O)cc1 (centres unmarked) [Compound 2h, 2-Hydroxy-3-((4-methoxyphenyl)(naphthalen-2-ylthio)methyl) naphthalene-1,4-dione]	22.4 ± 2.2 µM	31.5 ± 6.1 µM	56 to 57 °C	24.5 ± 3.6 µM	34.5 ± 4.6 µM	63.4 ± 7.1 µM	63.4 ± 7.1 µM	21.7 ± 4.7 µM	39.7 ± 5.7 µM	–	–
O=C1C(c2ccccc2)=C(c2ccccc2)C(=O)c2ccccc21 [DPNQ, 2,3-diphenyl-1,4-naphthoquinone]	–	–	–	–	–	–	–	–	–	–	animal survival (T. cruzi; up to 70 dpi): 60%; parasite load (T. cruzi): reduced two-fold the parasite load
O=C1C(O)=C(C(Sc2ccc(Cl)cc2)c2ccc(Cl)cc2)C(=O)c2ccccc21 (centres unmarked) [Compound 1a, 2-((4-chlorophenyl)((4-chlorophenyl)thio)methyl)-3-hydroxynaphthalene-1,4-dione]	≤ 6.9 µM	12.1 ± 1.3 µM	135 to 136 °C	3.1 ± 0.6 µM	5.8 ± 0.9 µM	43.6 ± 2.3 µM	43.6 ± 2.3 µM	8.9 ± 0.6 µM	25.1 ± 1.6 µM	6.2 ± 0.9 µM	–
COc1ccc(C(Sc2ccc(F)cc2)C2=C(O)C(=O)c3ccccc3C2=O)cc1 (centres unmarked) [Compound 2e, 2-(((4-fluorophenyl)thio)(4-methoxyphenyl)methyl)-3-hydroxynaphthalene-1,4-dione]	≤ 6.9 µM	19.7 ± 3.2 µM	132 to 134 °C	20.3 ± 4.1 µM	32.3 ± 5.1 µM	47.7 ± 3.2 µM	47.7 ± 3.2 µM	24.4 ± 4.4 µM	31.4 ± 4.4 µM	6.8 ± 1.5 µM	–
COc1ccc(C(Sc2ccc(Cl)cc2)C2=C(O)C(=O)c3ccccc3C2=O)cc1 (centres unmarked) [Compound 1g, 2-(((4-chlorophenyl)thio)(4-methoxyphenyl)methyl)-3-hydroxynaphthalene-1,4-dione]	≤ 6.9 µM	11.4 ± 2.1 µM	–	10.2 ± 0.5 µM	16.8 ± 2.5 µM	99.9 ± 12.5 µM	99.5 ± 12.5 µM	8.1 ± 0.6 µM	≤ 19.3 µM	6.7 ± 1.8 µM	death in acute toxicity assessment ([5]; intraperitoneal, cumulative dose of 500 mg/kg (5 x 100 mg/kg), n = 2): one animal died; changes in mouse behavioral characteristics ([5]; oral and i.p. cumulative doses, acute toxicity assessment): not observed; toxic side effects according to the OECD guidelines ([5]; oral and i.p., five doses of 50 mg/kg 1 h apart, total cumulative dose 250 mg/kg, up to 48 h post-treatment): No toxic side effects; parasitemia / parasitic load (T. cruzi Y strain; Swiss Webster male mice, 10^4 Y strain trypomastigotes, i.p. treatment 5 consecutive days from 5 dpi, C2 50 and 100 mg/kg/day, 1g 50 mg/kg/day): not efficient in eliminating the parasites; prevention of mortality / survival (T. cruzi Y strain; Swiss Webster male mice, Y strain, i.p. treatment from 5 dpi, C2 50 and 100 mg/kg/day, 1g 50 mg/kg/day): not able to prevent mortality; IC90 [2, 9]: ≤ 19.3 µM; IC90 [4]: 19.3 ± 3.4 µM
COc1ccc(C(Sc2ccccc2C)C2=C(O)C(=O)c3ccccc3C2=O)cc1 (centres unmarked) [Compound 2b, 2-Hydroxy-3-((4-methoxyphenyl)(o-tolylthio)methyl) naphthalene-1,4-dione]	~12 µM	27.4 ± 2.4 µM	54 to 55 °C	27.9 ± 4.1 µM	37.9 ± 6.1 µM	44.4 ± 3.4 µM	44.4 ± 3.4 µM	25.9 ± 2.2 µM	31.8 ± 0.9 µM	11.3 ± 1.1 µM	–
O=C(Cn1ccnc1[N+](=O)[O-])NCc1ccccc1 [Bz, benznidazole, reference compound]	–	7.9 ± 1.2 µM	–	–	–	> 500 µM	> 500 µM	17.5 ± 3.3 µM	> 100 µM	–	IC50 ([1]; Trypanosoma cruzi): 1.4 ± 0.4 µM; parasitemia by microscopic analysis (T. cruzi Y strain; infected mice treated orally with Bz 100 mg/kg/day): undetectable parasitemia; survival (T. cruzi Y strain; infected mice treated orally with Bz 100 mg/kg/day, 26 days): survived during all period analyzed; IC50 [2, 10]: 14.3 ± 3.2 µM; IC90 [2, 9]: > 100 µM
O=C1C(O)=C(C(Sc2ccc(Cl)cc2)c2cn(-c3cc(Cl)cc(Cl)c3)nn2)C(=O)c2ccccc21 (centres unmarked) [Compound 1e, 2-(((4-chlorophenyl)thio)(1-(3,5-dichlorophenyl)-1H-1,2,3-triazol-4-yl)methyl)-3-hydroxynaphthalene-1,4-dione]	9.1 ± 0.7 µM	27.9 ± 3.9 µM	142 to 143 °C	4.7 ± 1.9 µM	5.5 ± 0.9 µM	34.1 ± 2.9 µM	34.1 ± 7.5 µM	~4.5 µM	16.5 ± 2.8 µM	–	IC50 [2, 10]: ~4.5 µM
O=C1C(O)=C(C(Sc2ccc(Cl)cc2)c2ccccc2Cl)C(=O)c2ccccc21 (centres unmarked) [Compound 1c, 2-((2-chlorophenyl)((4-chlorophenyl)thio)methyl)-3-hydroxynaphthalene-1,4-dione]	9.3 ± 0.8 µM	23.1 ± 3.3 µM	183 to 184 °C	4.3 ± 3.2 µM	7.3 ± 2.2 µM	44.1 ± 2.3 µM	44.1 ± 2.3 µM	8.6 ± 1.4 µM	29.6 ± 5.4 µM	–	–
O=C1C(O)=C(C(Sc2ccc(Cl)cc2)c2cccc(Cl)c2)C(=O)c2ccccc21 (centres unmarked) [Compound 1b, 2-((3-chlorophenyl)((4-chlorophenyl)thio)methyl)-3-hydroxynaphthalene-1,4-dione]	≤ 6.9 µM	12.7 ± 1.8 µM	–	3.6 ± 1.6 µM	8.1 ± 1.3 µM	42.1 ± 1.9 µM	42.1 ± 1.9 µM	9.8 ± 0.5 µM	30.8 ± 2.9 µM	6.9 ± 1.5 µM	–
COc1ccc(C(Sc2ccc([N+](=O)[O-])cc2)C2=C(O)C(=O)c3ccccc3C2=O)cc1 (centres unmarked) [Compound 2f, 2-Hydroxy-3-((4-methoxyphenyl)((4-nitrophenyl)thio)methyl)naphthalene-1,4-dione]	≤ 6.9 µM	76.6 ± 4.9 µM	–	12.5 ± 1.6 µM	19.9 ± 3.6 µM	40.6 ± 2.9 µM	40.6 ± 2.9 µM	6.5 ± 3.1 µM	11.5 ± 3.1 µM	5.7 ± 1.4 µM	–
